For 16 molecules, MIC results are on record in patent US10647675B2 (priority 2015, dated 2020).

The test system of assay [1] is Trichophyton mentagrophytes SM-110. Briefly: Antifungal activity evaluation test: minimum inhibitory concentration (MIC), broth dilution by reference to CLSI M38-A2. The format is cell-based. The following applies: SM110, read-out: MIC (T. menta.). How it is done:
(§1) The minimum inhibitory concentration (MIC) for Trichophyton mentagrophytes and Trichophyton rubrum was measured by the following procedure by reference to Clinical and Laboratory standards Institute (CLSI) guidelines M38-A2. Reference document for the measurement method: National Committee for a Clinical Laboratory Standards. Reference method for broth dilution antifungal susceptibility testing of filamentous fungi. Approved standard Second edition M38-A2. Wayne, Pa.: National Committee for a Clinical Laboratory Standards, 2008. • Test compound solution: A test compound was dissolved in dimethyl sulfoxide (DMSO) at a concentration of 2.5 mg/mL to give a stock solution. The stock solution was appropriately diluted with DMSO to prepare a 2-fold dilution series. As control compounds, terbinafine and amorolfine were used. • Test strains: Trichophyton mentagrophytes SM-110 and Trichophyton rubrum KD-1130 were used. • Preparation of fungal culture to be inoculated: The above-mentioned test strain was suspended in 0.05% Tween 80-containing saline, and the fungi of the genus Trichophyton were prepared to a fungal concentration of 1×10^6 cells/mL by using a hemocytometer. Then, using MOPS-buffered RPMI 1640 medium (pH 7.0) as a test medium, a fungal culture of the fungi of the genus Trichophyton was diluted 250-fold (4×10^3 cells/mL) to give a fungal culture for inoculation. • MIC measurement of genus Trichophyton fungi: MOPS-buffered RPMI 1640 medium (pH 7.0) was dispensed by 100 μL to given wells of a 96 well U-bottom microplate. Then, the test compound solution (2 μL) was added, the mixture was sufficiently stirred by a plate mixer. The fungal culture (100 μL) was inoculated and the mixture was cultured at 35° C. for 4 days (final fungal concentration: 2×10^3 cells/mL). After the culture, the minimum drug concentration of a well in which a growth inhibitory action of not less than 80% was visually observed as compared to a growth control was taken as a minimum inhibitory concentration (MIC: μg/mL).
(§2) The abbreviations in the Tables mean the following fungi and compounds. • T. menta.: Trichophyton mentagrophytes • T. rubrum: Trichophyton rubrum • TBF: terbinafine • AMF: amorolfine

Assay [2] concerns Trichophyton rubrum KD-1130. Described as above. Particulars: KD1130, read-out: MIC (T. rubrum). It is filed as cell-based. How it is done: as §1, §2

Converted amounts (≈) assume the structure as drawn. Bounds are passed on as bounds.

In the case of `COc1ncccc1-c1cccnc1Sc1ccc(C(F)(F)F)cc1` [I-435], the MIC in assay [1] and in assay [2] was 0.2 to 0.78 µg/mL (≈ 0.552 to 2.15 µM) each time.
In the case of `FC(F)(F)c1ccc(Nc2ncncc2-c2cccc3ccnn23)cc1` [I-362, 5-(pyrazolo[1,5-a]pyridin-7-yl)-N-[4-(trifluoromethyl)phenyl]pyrimidin-4-amine], the minimal inhibitory concentration (MIC) in assay [1] and in assay [2] was not above 0.1 µg/mL each time.
As for `FC(F)(F)c1ccc(Oc2ncccc2-c2cccc3cc[nH]c23)cn1` [I-42, 7-(2-{[6-(trifluoromethyl)pyridin-3-yl]oxy}pyridin-3-yl)-1H-indole], the MIC in assay [1] and in assay [2] was 0.2 to 0.78 µg/mL (≈ 0.563 to 2.2 µM) in each case.
For `COCC(F)(F)c1ccc(Oc2ncccc2-c2cc(Cl)ccc2OC)cn1` [I-163, 3-(5-chloro-2-methoxyphenyl)-2-{[6-(1,1-difluoro-2-methoxyethyl)pyridin-3-yl]oxy}pyridine], the minimum inhibitory concentration (MIC) in assay [1] and in assay [2] was not above 0.1 µg/mL throughout.
`COC(=O)c1ccccc1-c1cccnc1Oc1ccc(C(F)(F)F)nc1` [I-20, methyl 2-(2-{[6-(trifluoromethyl)pyridin-3-yl]oxy}pyridin-3-yl)benzoate]: the MIC in assay [1] fell in the range of 1.56 to 6.25 µg/mL (≈ 4.17 to 16.7 µM); in assay [2], 0.2 to 0.78 µg/mL (≈ 0.534 to 2.08 µM).
As for `CCOC(=O)CCc1ncc(Oc2ncccc2-c2ccc(F)cc2OC)cn1` [I-195, ethyl 3-(5-{[3-(4-fluoro-2-methoxyphenyl)pyridin-2-yl]oxy}-pyrimidin-2-yl)propionate], the minimum inhibitory concentration (MIC) in assay [1] and in assay [2] was 0.2 to 0.78 µg/mL (≈ 0.503 to 1.96 µM) in each case.
As to `COc1cc(-c2cncnc2Oc2cnc(C(F)F)c(C)c2)c(F)cc1F` [I-325, 5-(2,4-difluoro-5-methoxyphenyl)-4-{[6-(difluoromethyl)-5-methylpyridin-3-yl]oxy}pyrimidine], the MIC in assay [1] and in assay [2] was not above 0.1 µg/mL each time.
With `COc1ccccc1-c1cncnc1Oc1ccc(C(F)F)c(C)c1` [I-323, 4-[4-(difluoromethyl)-3-methylphenoxy]-5-(2-methoxyphenyl)pyrimidine], the MIC in assay [1] and in assay [2] was not above 0.1 µg/mL each time.
For `COc1ncccc1-c1cccnc1Oc1ccc(C)cc1` [I-459], the minimal inhibitory concentration (MIC) in assay [1] and in assay [2] was not above 0.1 µg/mL each time.
With `COc1cc(F)ccc1-c1cccnc1Oc1cnc(CCc2cnn(C)c2)nc1` [I-198, 5-{[3-(4-fluoro-2-methoxyphenyl)pyridin-2-yl]oxy}-2-[2-(1-methyl-1H-pyrazol-4-yl)ethyl]pyrimidine], the MIC in assay [1] and in assay [2] was 0.2 to 0.78 µg/mL (≈ 0.493 to 1.92 µM) throughout.
On to `FC(F)(F)c1ccc(Oc2ncccc2-c2ccccc2Br)cn1` [I-5, 3-(2-bromophenyl)-2-{[6-(trifluoromethyl)pyridin-3-yl]oxy}pyridine], for which the MIC in assay [1] was 0.2 to 0.78 µg/mL (≈ 0.506 to 1.97 µM); in assay [2] it was not above 0.1 µg/mL.
The corresponding values for `CCN(C)c1ccc(Oc2ncccc2-c2ccc(F)cc2OC)cn1` [I-367, N-ethyl-5-{[3-(4-fluoro-2-methoxyphenyl)pyridin-2-yl]oxy}-N-methylpyridin-2-amine] are not above 0.1 µg/mL and not above 0.1 µg/mL.
Turning to `COc1ccncc1-c1cccnc1Oc1ccc(C(OS(=O)(=O)c2ccc(C)cc2)C(F)(F)F)cc1` (centres unmarked) [I-248], the minimum inhibitory concentration (MIC) in assay [1] and in assay [2] was 1.56 to 6.25 µg/mL (≈ 2.94 to 11.8 µM) throughout.
In the case of `COc1ccccc1-c1cccnc1Oc1ccc(C(F)(F)CO)nc1` [I-79, 2,2-difluoro-2-(5-{[3-(2-methoxyphenyl)pyridin-2-yl]oxy}pyridin-2-yl)ethanol], the figures for the MIC in assay [1] and in assay [2] were 0.2 to 0.78 µg/mL (≈ 0.558 to 2.18 µM) and 1.56 to 6.25 µg/mL (≈ 4.35 to 17.4 µM), respectively.
The corresponding values for `c1cc(-c2cncnc2Oc2ccc3c(c2)CCC3)n2nccc2c1` [I-326, 7-{4-[(2,3-dihydro-1H-inden-5-yl)oxy]pyrimidin-5-yl}pyrazolo[1,5-a]pyridine] are not above 0.1 µg/mL and not above 0.1 µg/mL.
For the molecule `COc1cc(-c2cncnc2Oc2ccc(C(F)(F)F)nc2)c(F)cc1F` [I-329, 5-(2,4-difluoro-5-methoxyphenyl)-4-{[6-(trifluoromethyl)pyridin-3-yl]oxy}pyrimidine], the MIC in assay [1] and in assay [2] was not above 0.1 µg/mL in each case.

One may read the MIC as the lowest concentration that inhibits growth of the organism.
